Read-outs that look alike come from different tables or passages of the source.
How the values were obtained:
[1] = system: A549 cells; test: MTT proliferation assay, 72 hr (Example 6.2); type: cell-based, human; conditions: A549, 72 h, mean ± SD of at least five experiments
Method: (§1) The human cancer cell lines; MCF7 (breast), HCT116 (colon) and A549 (lung) (Cancer Research UK, London, UK), were grown in either DMEM (Sigma) or RPMI (Sigma) media supplemented with 10% foetal bovine serum, 2 mM L-glutamine, 1% penicillin/streptomycin.
(§2) To study the effect of each agent on cell growth, cells growing exponentially were added to 96-well plates at a density of 3×10^4/well. Drugs (0.1-100 μM) were then added to the wells, ensuring an equal volume of 200 μl across the plate. Cell number was measured at 72 hr using a standard methylthiazoletetrazolium (MTT)-based assay without modifications as described previously (Gordi et al., 2004, Toxicol. Lett. 147: 99-107). Briefly, MTT (Sigma) was added to each well to give a working concentration of 0.4 mg/ml, and plates returned to the incubator for a further 1 hr. After this time, the medium was aspirated off, 200 μl of DMSO was then added to each well, and plates agitated gently for 5 min before measuring optical density at 540 nm in each well.

[2] = system: HCT116^norm cells; test: MTT proliferation assay, 72 hr (Example 6.2); type: cell-based, human
Method: as §1, §2

[3] = system: MCF7 cells; test: MTT proliferation assay, 72 hr (Example 6.2); type: cell-based, human; conditions: MCF7, 72 h, mean ± SD of at least five experiments
Method: as §1, §2

[4] = system: HCT116^poly cells; test: MTT proliferation assay, 72 hr (Example 6.2); type: cell-based, human; conditions: HCT116^poly (polyploid extended-passage variant)
Method: as §2

[5] = system: HCT116^norm cells; conditions: read-out: concentration required to achieve ~50% cell kill, ART and OXP used simultaneously, ART + OXP combination (ratio 1:2.5)
Description: The combination studies followed an approach previously described (Gordi et al., 2004, Toxicol. Lett. 147: 99-107). HCT116^norm, A549, MCF7 and HCT116^poly cells (5×10^4/well) growing exponentially were reset in fresh culture medium and aliquoted into 96-well plates. ART was the primary drug partner and combined with OXP at an equal ratio of their respective IC50 (eg. ½×IC50 of ART was combined with ½×IC50 of OXP). Fixing this ratio also kept constant the amount of one drug respective to the other. For instance, ART was combined with OXP at a constant ratio of 1:2.5. Cells were incubated for 72 hr in a humidified atmosphere with 5% CO2 in air at 37° C. Cell number was assessed by the MTT assay as described previously. The activities of drug combinations were established by comparing optical density readings from the treated wells with the control wells with no drug treatment, and the natures of drug-drug interactions then assessed by calculating a combination index (CI) by using the median-effect equation, where CI-values of 1 indicated additivity; CI<1 indicated synergy and CI>1 indicated antagonism.

[6] = system: all the cell lines (A549, HCT116^norm, MCF7); test: Effect of low LEN concentrations alone on cell numbers and viabilities (Example 6.2); type: cell-based, human; conditions: LEN alone at 0.1 and 1 μM
Method: Median-effect analysis of combination requires the extrapolation of an IC50-value. Where this was not possible, the inventors explored the effect of combining drugs by fixing the concentration of GEM or LEN (modulating agent) and testing its ability to influence the activity of ART (drug partner). […] ART was diluted in growth medium and added to the plates in a range of drug concentrations to allow determination of IC50. The effect on these IC50 values of co-culture with a sub-optimal concentration (˜IC20) of GEM or LEN was then tested. Cell numbers at 72 hr were assessed by the MTT assay as previously described. This enabled the assessment of the nature of any drug-drug interaction by comparing the IC50 for ART in the presence and absence of the combinatorial drug partner.
The lack of a dose-response in the cells rendered the primary model of drug-drug interaction ineffectual for combinations of ART with LEN. For this reason the inventors next tested the ability of LEN to sensitise cells to ART. These combinatorial analyses were performed in all the cell lines using a smaller concentration of LEN (0.1 and 1 μM). These concentrations had little effect on cell numbers and viabilities.

[7] = system: PANC1 cells; test: MTT proliferation assay, 72 hr (Example 6.1); type: cell-based, human
Method: (§3) The human cancer cell lines; MCF7 (breast), HCT116 and SW480 (colon) (Cancer Research UK, London, UK), KM and MJT3 (melanoma) (in house), PANC1 and MIAPaCa (pancreas) (European Collection of Cell Cultures, Salisbury, UK) were grown in either DMEM (Sigma) or RPMI (Sigma) media supplemented with 10% foetal bovine serum, 2 mM L-glutamine, 1% penicillin/streptomycin.
as §2, with “ATM and ART” for “each agent”, “Drugs (0.1-100 μM) were then added to the wells, ensuring an equal volume of 200 μl across the plate.” left out, “number/proliferation” for “number”, “modifications.” for “modifications as described previously (Gordi et al., 2004, Toxicol. Lett. 147: 99-107).”, “μL” for “μl”

[8] = system: HCT116 cells; test: MTT proliferation assay, 72 hr (Example 6.1); type: cell-based, human
Method: as §3
as §2, with “ATM and ART” for “each agent”, “μL” for “μl”, “number/proliferation” for “number”, “modifications.” for “modifications as described previously (Gordi et al., 2004, Toxicol. Lett. 147: 99-107).”

[9] = system: MJT3 cells; test: MTT proliferation assay, 72 hr (Example 6.1); type: cell-based, human
Method: as §3
as §2, with “ATM and ART” for “each agent”, “μL” for “μl”, “number/proliferation” for “number”, “modifications.” for “modifications as described previously (Gordi et al., 2004, Toxicol. Lett. 147: 99-107).”

[10] = system: SW480 cells; test: MTT proliferation assay, 72 hr (Example 6.1); type: cell-based, human
Method: as §3
as §2, with “ATM and ART” for “each agent”, “μL” for “μl”, “number/proliferation” for “number”, “modifications.” for “modifications as described previously (Gordi et al., 2004, Toxicol. Lett. 147: 99-107).”

[11] = system: MCF7 cells; test: MTT proliferation assay, 72 hr (Example 6.1); type: cell-based, human; conditions: for IC50: MCF7 (breast), 72 hours treatment, MTT, mean ± SD of at least 3 experiments
Method: as §3
as §2, with “ATM and ART” for “each agent”, “μL” for “μl”, “number/proliferation” for “number”, “modifications.” for “modifications as described previously (Gordi et al., 2004, Toxicol. Lett. 147: 99-107).”

[12] = system: MiaPaCa3 cells; test: MTT proliferation assay, 72 hr (Example 6.1); type: cell-based; conditions: Homo sapiens, MiaPaCa3 (pancreas), 72 hours treatment, mean ± SD of at least 3 experiments
Method: as §3
as §2, with “ATM and ART” for “each agent”, “μL” for “μl”, “number/proliferation” for “number”, “modifications.” for “modifications as described previously (Gordi et al., 2004, Toxicol. Lett. 147: 99-107).”

[13] = system: KM cells; test: MTT proliferation assay, 72 hr (Example 6.1); type: cell-based; conditions: Homo sapiens, KM (melanoma), 72 hours treatment, mean ± SD of at least 3 experiments
Method: as §3
as §2, with “ATM and ART” for “each agent”, “μL” for “μl”, “number/proliferation” for “number”, “modifications.” for “modifications as described previously (Gordi et al., 2004, Toxicol. Lett. 147: 99-107).”

[14] = system: HCT116 cells; test: Flow cytometric analysis of the cell cycle (Example 6.1); type: cell-based, human
Method: (§4) Cells were cultured with equi-active concentrations (˜IC25) of ART or ATM for 72 hrs, before fixing in 70% (v/v) ethanol in PBS. Following an incubation period of at least 30 mins, cells were washed and re-suspended in a DNA staining solution (1 mg/mL propidium iodide and 1 ng/mL RNAse A (both Sigma). Acquisition of data was performed within 1 h using a Becton Dickinson FACSCalibur (BD Biosciences), and gating was employed to remove doublet artefacts and to discriminate cells from debris. Ten thousand cells were analysed, and the percentages of cells in G1, S and G2/M phases were determined using the cell cycle analysis program WinMDI CellQuest v2.9 (http://facs.scripps.edu/software.html).

[15] = system: SW480 cells; test: as above; type: cell-based, human; conditions: SW480, equi-active (~IC25) concentration, 72 hrs
Method: as §4

[16] = system: MCF7 cells; test: as above; type: cell-based, human
Method: as §4

[17] = system: Plasmodium falciparum; conditions: Haynes 2006; Vivas 2007; Ramharter 2006; cited from earlier work
[18] = system: human cancer cell lines; test: Trypan blue dye exclusion in parallel to MTT (Example 6.1); type: cell-based; conditions: in parallel to the MTT assay; data not shown
[19] = system: HCT116, SW480 and MCF7 cells; test: Combination with OXP at fixed ratio, nature of interaction (Example 6.1); type: cell-based, human; conditions: combined with OXP, median effect analysis
Description: This combination studies followed an approach previously described (Liu et al. 2008, Leuk Lymphoma, 49(9):1800-9).

[20] = Nagelschmitz et al., 2008; cited from earlier work
[21] = system: Bax; test: Immunoblotting analysis (Example 6.1); type: cell-based, human; conditions: immunoblotting of treated cultures
Method: (§5) Cells were harvested and total cellular protein was solubilised in lysis buffer (New England Biolabs, Hitchin, UK) and resolved by Tris-glycine electrophoresis using a 4-12% bis-tris gradient-gel according to the method of Laemmli (Laemmli UK. 1970. Nature, 227(5259):680-5). Following transfer of proteins to nitrocellulose membranes (0.45 μm), blocking was performed in 5% (w/v) non-fat milk in TTBS [0.5% (v/v) Tween-20 in TBS (50 mM Tris, 150 mM NaCl, pH 8.0)]. Primary antibody probing was performed with anti-p53, anti-p21, anti-Bax, anti-CDK4, anti-cyclin D1 or anti-pRb. All primary antibodies were obtained from New England Biolabs (Hitchin, UK) and used at a dilution of 1:1,000, unless stated otherwise. Anti-GAPDH was used as a loading control (1:2,000—New England). Following five washing steps in TTBS, horseradish peroxidase-conjugated anti-species IgG1 was used as the secondary antibody (Amersham Biosciences Ltd., Little Chalfont, UK). Bands were visualised by the ECL-plus detection system (Amersham).

[22] = system: cyclin D1 and CDK 4; test: Immunoblotting analysis (Example 6.1); type: cell-based, human; conditions: whole cell lysates, equi-active (~IC25) concentrations, 72 hrs
Method: as §5

[23] = system: p21^waf1cip1; test: Immunoblotting analysis (Example 6.1); type: cell-based, human; conditions: whole cell lysates, ~IC25, 72 hrs
Method: as §5

[24] = system: pRb; test: Immunoblotting analysis (Example 6.1); type: cell-based, human; conditions: in each cell line (HCT116, SW480, MCF7)
Method: as §5

Question: What does the source list for `O=C1[O][Pt]2([NH][C@@H]3CCCC[C@H]3[NH]2)[O]C1=O` [Oxaliplatin, oxaliplatin]?
Answer: IC50 [1]: 6.2 ± 0.95 µM; IC50 ([2]; 72 h, MTT, mean ± SD of at least five experiments, listed as OXP, read-out: IC50): 5.3 µM; IC50 ([2]; 72 h, MTT, mean ± SD of at least five experiments, read-out: IC50): 4.05 ± 1.8 µM; IC50 ([2]; single agent, read-out: concentration required to achieve ~50% cell kill, used separately): 4 µM; IC50 [3]: 6.1 ± 1.1 µM; IC50 [4]: 5.8 µM; IC50 [5]: 1.6 µM

Question: For `Nc1cccc2c1CN(C1CCC(=O)NC1=O)C2=O` (centres unmarked) [Lenalidomide, 1-oxo-2-(2,6-dioxopiperidin-3-yl)-4-aminoisoindoline], which IC50 ([1]; Homo sapiens) is on record?
Answer: > 100 µM

Question: And the IC50 ([2]; Homo sapiens, 72 h, MTT, mean ± SD of at least five experiments, read-out: IC50)?
Answer: > 100 µM

Question: And the IC50 ([3]; Homo sapiens)?
Answer: > 100 µM

Question: What about the “effect on cell numbers and viabilities” value [6] of the same compound?
Answer: little effect

Question: For `C[C@H]1[C@H](N2CCS(=O)(=O)CC2)O[C@@H]2O[C@@]3(C)CC[C@H]4[C@H](C)CC[C@@H]1[C@@]24OO3` [Artemisone, artemisone], which IC50 ([7]; Homo sapiens, PANC-1, PANC1 (pancreas), 72 hours treatment, MTT, mean ± SD of at least 3 experiments) is on record?
Answer: > 1000 µM

Question: And the “impact on cell number” value ([7]; p53-mutant, resistant PANC1 cell line)?
Answer: neither drug had an impact

Question: And the “susceptibility to ATM relative to ART” value ([8]; HCT116, comparison of IC50)?
Answer: around 30 ×

Question: And the IC50 ([8]; Homo sapiens, HCT-116, HCT116 (colon), 72 hours treatment, MTT, mean ± SD of at least 3 experiments)?
Answer: 9.5 ± 0.9 µM

Question: What about the IC50 ([9]; Homo sapiens, MJT3 (melanoma), 72 hours treatment, MTT, mean ± SD of at least 3 experiments) of the same compound?
Answer: 30 ± 26 µM

Question: What about the “effect on cell number” value ([9]; MJT3 cells, MTT 72 hr) of the same compound?
Answer: significantly reduced cell number

Question: What about the IC50 ([10]; Homo sapiens, SW480 (colon), 72 hours treatment, MTT, mean ± SD of at least 3 experiments) of the same compound?
Answer: 4.5 ± 1.6 µM

Question: And the “susceptibility to ATM relative to ART” value ([10]; SW480, comparison of IC50)?
Answer: around 30 ×

Question: And the IC50 ([11]; Homo sapiens, MCF7, 72 h)?
Answer: 0.5 µM

Question: What about the “IC50 less for ATM than its precursor ART” value ([11]; MCF7) of the same compound?
Answer: around 80 fold

Question: And the IC50 [11]?
Answer: 0.56 ± 0.17 µM

Question: What about the IC50 [12] of the same compound?
Answer: 14 ± 10 µM

Question: What about the IC50 [13] of the same compound?
Answer: 6.4 ± 2.1 µM

Question: And the “apoptotic/sub-G1 phase of the cell cycle” value ([14]; HCT116, equi-active (~IC25) concentration, 72 hrs)?
Answer: no increase

Question: What about the “distribution of cells within the G1, S and G2 phases” value ([14]; HCT116, ~IC25, 72 hrs) of the same compound?
Answer: did not alter the distribution

Question: What about the “apoptotic/sub-G1 phase of the cell cycle” value [15] of the same compound?
Answer: no increase

Question: And the “apoptotic/sub-G1 phase of the cell cycle” value ([16]; MCF7, equi-active (~IC25) concentration, 72 hrs)?
Answer: no increase

Question: What about the cell cycle effect ([16]; MCF7, ~IC25, 72 hrs) of the same compound?
Answer: G1-selective blockade

Question: What about the “cells in G1” value ([16]; MCF7, ~IC25, 72 hrs, untreated 63±4.40%, p=0.015) of the same compound?
Answer: 83±5.5%

Question: What about the “activity against Plasmodium falciparum compared with other antimalarial drugs” value [17] of the same compound?
Answer: significantly more active

Question: What about the “cell viability (trypan blue dye exclusion)” value [18] of the same compound?
Answer: did not affect cell viability

Question: And the “nature of interaction with OXP” value [19]?
Answer: additive interaction

Question: What about the toxicity [20] of the same compound?
Answer: almost negligible toxicity

Question: And the “pro-apoptotic protein Bax” value [21]?
Answer: no increase

Question: And the “levels of cyclin D1 and its associated CDK 4” value [22]?
Answer: significantly reduced

Question: And the “levels of the general CDK inhibitor p21^waf1cip1” value [23]?
Answer: generally unchanged

Question: What about the “levels of pRb” value [24] of the same compound?
Answer: dramatic reduction
